This is an account of results in patent publication US20240059673A1, “SUBSTITUTED INDOLE COMPOUNDS” (Gilead Sciences, Inc., priority 2020, published 2024).

pEC50: −log10 of the molar value.

Usually pEC50 stands for the EC50 on a negative log10 scale, so that one unit is a factor of ten.

One assay deals with T1, TLR9 (Homo sapiens, UniProt Q9NR96).
T1 construct: lymphocytes, monocytes and dendritic cells that express TLR7, TLR8 and TLR9; endogenous in cells; host or cells: cryopreserved human PBMCs from healthy donors
T1 sequence (Q9NR96 26-1032): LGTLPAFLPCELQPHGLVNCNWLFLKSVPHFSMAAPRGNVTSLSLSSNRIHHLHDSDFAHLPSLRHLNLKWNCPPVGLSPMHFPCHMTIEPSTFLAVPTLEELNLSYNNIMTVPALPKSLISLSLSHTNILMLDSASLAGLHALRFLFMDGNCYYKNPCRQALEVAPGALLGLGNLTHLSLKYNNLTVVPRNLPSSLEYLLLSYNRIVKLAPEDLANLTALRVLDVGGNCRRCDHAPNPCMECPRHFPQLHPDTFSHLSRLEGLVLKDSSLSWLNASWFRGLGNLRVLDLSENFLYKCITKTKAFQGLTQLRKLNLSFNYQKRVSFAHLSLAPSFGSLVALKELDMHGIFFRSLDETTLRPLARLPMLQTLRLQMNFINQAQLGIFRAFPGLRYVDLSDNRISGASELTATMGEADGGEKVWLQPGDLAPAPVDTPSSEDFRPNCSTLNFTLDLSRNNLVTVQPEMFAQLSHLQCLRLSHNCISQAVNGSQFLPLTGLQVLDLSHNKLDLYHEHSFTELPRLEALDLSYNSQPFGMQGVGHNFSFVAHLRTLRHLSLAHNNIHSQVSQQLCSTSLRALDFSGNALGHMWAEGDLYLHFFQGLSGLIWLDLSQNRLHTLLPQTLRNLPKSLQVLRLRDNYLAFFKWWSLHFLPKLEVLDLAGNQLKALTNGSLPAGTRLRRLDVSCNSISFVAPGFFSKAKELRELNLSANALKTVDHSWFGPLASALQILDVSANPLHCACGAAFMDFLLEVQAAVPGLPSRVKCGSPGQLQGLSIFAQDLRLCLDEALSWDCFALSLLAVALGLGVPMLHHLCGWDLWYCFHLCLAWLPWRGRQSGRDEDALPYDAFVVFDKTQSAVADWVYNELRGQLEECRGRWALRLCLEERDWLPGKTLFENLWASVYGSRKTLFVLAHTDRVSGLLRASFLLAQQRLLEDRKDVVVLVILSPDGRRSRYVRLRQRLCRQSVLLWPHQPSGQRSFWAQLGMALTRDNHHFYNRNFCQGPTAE
Put plainly: Human PBMC cell-based assay, TLR9 agonist stimulation. The settings on record: human PBMCs; TLR9 agonist ODN-2216 3 μM; 6 hours; cytokines (IL-6 and IFNα) in supernatant; Table 2; read-out: TLR-9 EC50. From the text:
(§1) Human Peripheral Blood Mononuclear Cell (PBMC) Cell-Based Assay
(§2) Human peripheral blood mononuclear cells (PBMCs) consist of lymphocytes, monocytes and dendritic cells that express TLR7, TLR8 and TLR9. These cells respond to TLR7, TLR8 and TLR9 ligand stimulation and produce cytokines and chemokines in vitro and in vivo. Human PBMCs are therefore suitable to be used in a cell-based assay to assess the in vitro potency of a TLR 7, 8, and/or 9 antagonist. The result is expected to be more translatable to the pharmacodynamics response in vivo than cell line-based assays.
(§3) Cryopreserved human PBMCs from healthy donors were thawed and resuspended in RPMI-1640 media with L-glutamine (Corning) supplemented with 10% Fetal Bovine Serum (Hyclone) and 1× Penicillin-Streptomycin (Corning). After counting, the cell density was adjusted to 2 million cells/ml and incubated for 1 hour at 37° C., 5% CO2 for recovery. Following the recovery, the cells were plated by adding 50p per well (100,000 cells) to 384-well cell culture plates (Greiner) containing 250 nl of test antagonists in 100% DMSO per well, in a 10 points dose response in quadruplicates. PBMCs were incubated in the presence of test antagonists for one hour at 37° C., 5% CO2 before being stimulated with a TLR7 or TLR9 agonist. GS-986 (Gilead Sciences) was used as the TLR7 agonist at a final concentration of 400 nM. ODN-2216 (InvivoGen) was used as the TLR9 agonist at a final concentration of 3μM. PBMCs were incubated in the presence of the test antagonist and the TLR7 (or TLR9) agonist for an additional 6 hours at 37° C., 5% CO2. At the end of the incubation, the cell culture plates were centrifuged at 500 g for 5 min, and the cell culture supernatant was collected. The level of cytokines (IL-6 and IFNα) in the supernatant was measured by electrochemiluminescence immunoassays (Mesoscale Discovery) following manufacturer's recommended protocols. The level of cytokine measured was plotted against the test antagonist concentration and fitted to a sigmoidal function to determine the EC50, which are shown below in Table 2.

In a further assay the target is T2, TLR7 (Homo sapiens, UniProt Q9NYK1).
T2 construct: lymphocytes, monocytes and dendritic cells that express TLR7, TLR8 and TLR9; endogenous in cells; host or cells: cryopreserved human PBMCs from healthy donors
T2 sequence (Q9NYK1 27-1049): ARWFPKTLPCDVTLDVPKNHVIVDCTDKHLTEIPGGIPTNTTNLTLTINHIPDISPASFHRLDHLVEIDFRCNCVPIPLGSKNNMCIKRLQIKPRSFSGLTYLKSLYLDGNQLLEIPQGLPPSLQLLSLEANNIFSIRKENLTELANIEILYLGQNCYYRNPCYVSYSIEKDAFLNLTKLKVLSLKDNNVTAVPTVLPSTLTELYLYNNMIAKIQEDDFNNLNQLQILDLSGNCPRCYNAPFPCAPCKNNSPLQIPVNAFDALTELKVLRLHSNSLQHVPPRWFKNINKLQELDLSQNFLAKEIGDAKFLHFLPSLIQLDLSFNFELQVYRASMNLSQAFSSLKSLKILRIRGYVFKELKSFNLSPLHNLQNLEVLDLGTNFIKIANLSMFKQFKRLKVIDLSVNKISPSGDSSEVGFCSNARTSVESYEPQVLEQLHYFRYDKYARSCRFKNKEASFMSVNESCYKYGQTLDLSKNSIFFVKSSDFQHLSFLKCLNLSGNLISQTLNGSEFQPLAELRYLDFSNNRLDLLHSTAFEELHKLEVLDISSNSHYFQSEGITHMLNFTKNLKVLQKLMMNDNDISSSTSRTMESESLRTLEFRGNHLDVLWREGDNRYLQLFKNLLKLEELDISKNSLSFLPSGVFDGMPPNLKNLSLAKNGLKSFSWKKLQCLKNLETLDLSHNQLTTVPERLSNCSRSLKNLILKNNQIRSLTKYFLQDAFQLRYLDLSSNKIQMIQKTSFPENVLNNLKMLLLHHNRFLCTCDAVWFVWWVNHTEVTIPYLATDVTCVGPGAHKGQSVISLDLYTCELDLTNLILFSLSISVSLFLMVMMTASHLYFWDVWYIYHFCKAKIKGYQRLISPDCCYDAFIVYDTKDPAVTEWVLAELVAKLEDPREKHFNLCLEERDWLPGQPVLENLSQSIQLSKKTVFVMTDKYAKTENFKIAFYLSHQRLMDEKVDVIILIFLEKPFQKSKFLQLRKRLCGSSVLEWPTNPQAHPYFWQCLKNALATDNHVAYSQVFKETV
As to the kind of experiment: Human PBMC cell-based assay, TLR7 agonist stimulation. The settings on record: human PBMCs; TLR7 agonist GS-986 400 nM; 6 hours; cytokines (IL-6 and IFNα) in supernatant; Table 2; read-out: TLR-7 EC50.
Source text: as §1, §2, §3

On to `Cc1c(-c2cnc(N3CCNCC3)nc2)[nH]c2cc(-c3cc(C)c4ncnn4c3)ccc12` [Example 3], for which the pEC50 was 6.77 at TLR9 and 8.57 at TLR7.

As for `Cc1cc(-c2ccc3c(C)c(-c4ccc(N5CCNCC5)nc4)[nH]c3c2)ccn1` [Example 5], the pEC50 at TLR9 is 7.16; on TLR7 it was 8.36.

`Cc1noc(C)c1-c1ccc2c(C)c(-c3ccc(N4CCNCC4)nc3)[nH]c2c1` [Example 6]: the values for the pEC50 on TLR9 and on TLR7 were 5.68 and 6.35, respectively.

For `Cc1c(-c2ccc(N3CCNCC3)nc2)[nH]c2cc(-c3ccnc4ccccc34)ccc12` [Example 8], the values for the pEC50 at TLR9 and on TLR7 were 6.43 and 6.84, respectively.

With `Cc1c(-c2ccc(N3CCNCC3)nc2)[nH]c2cc(-c3cn[nH]c3)ccc12` [Example 9], the pEC50 on TLR9 and on TLR7 was 6.33 each time.

Turning to `COc1ccc(-c2ccc3c(C)c(-c4ccc(N5CCNCC5)nc4)[nH]c3c2)cc1OC` [Example 10], the results for the pEC50 at TLR9 and at TLR7 were 6.29 and 7.23, respectively.

With `Cc1cc(-c2ccc3c(C)c(C4=CCNCC4)[nH]c3c2)cc(C)n1` [Example 11, 6-(2,6-dimethylpyridin-4-yl)-3-methyl-2-(1,2,3,6-tetrahydropyridin-4-yl)-1H-indole], the pEC50 on TLR9 was 7.15; on TLR7 it was 6.16.

Turning to `CCc1c(-c2ccc(N3CCNCC3)nc2)[nH]c2cc(-c3cc(C)nc(C)c3)ccc12` [Example 12], the figures for the negative logarithm of the EC50 (pEC50) on TLR9 and at TLR7 were 7.32 and 8.21, respectively.

Regarding `CCN1CCC(c2[nH]c3cc(-c4cc(C)nc(C)c4)ccc3c2C)CC1` [Example 13, 6-(2,6-dimethylpyridin-4-yl)-2-(1-ethylpiperidin-4-yl)-3-methyl-1H-indole], the pEC50 on TLR9 is 6.76; on TLR7, under 6.00.

In the case of `CCc1c(-c2cnc(N3CCNCC3)nc2)[nH]c2cc(-c3cc(C)nc(C)c3)ccc12` [Example 14], the pEC50 is 7.43 at TLR9 and 8.21 on TLR7.

In the case of `Cc1cc(-c2ccc3c(C)c(-c4ccc(S(=O)(=O)N5CCNCC5)cc4)[nH]c3c2)cc(C)n1` [Example 15], the pEC50 at TLR9 is 6.69; at TLR7, 6.29.

`Cc1cc(-c2ccc3c(C)c(-c4cnc5c(c4)CNCC5)[nH]c3c2)cc(C)n1` [Example 16, 3-[6-(2,6-dimethyl-4-pyridyl)-3-methyl-1H-indol-2-yl]-5,6,7,8-tetrahydro-1,6-naphthyridine]: the negative logarithm of the EC50 (pEC50) on TLR9 was 7.55; on TLR7, 7.17.

For the compound `Cc1cc(-c2ccc3c(C)c(-c4cccc(C(=O)N[C@@H]5CCNC5)c4)[nH]c3c2)cc(C)n1` [Example 17, (R)-3-(6-(2,6-dimethylpyridin-4-yl)-3-methyl-1H-indol-2-yl)-N-(pyrrolidin-3-yl)benzamide], the figures for the pEC50 on TLR9 and on TLR7 were 6.38 and 6.71, respectively.

`Cc1cc(-c2ccc3c(C)c(-c4cccc(C(=O)N[C@H]5CCNC5)c4)[nH]c3c2)cc(C)n1` [Example 18]: the figures for the pEC50 at TLR9 and on TLR7 were 7.01 and 6.47, respectively.

For `Cc1cc(-c2ccc3c(C)c(-c4ccc(C(=O)N[C@@H]5CCNC5)cc4)[nH]c3c2)cc(C)n1` [Example 19], the pEC50 at TLR9 is 6.37; at TLR7, 6.48.

In the case of `Cc1cc(-c2ccc3c(C)c(-c4ccc(C(=O)N[C@H]5CCNC5)cc4)[nH]c3c2)cc(C)n1` [Example 20], the negative logarithm of the EC50 (pEC50) was 6.61 at TLR9 and 6.54 on TLR7.

`Cc1cc(-c2ccc3c(C)c(-c4ccc(C(=O)N5CCNCC5)cc4)[nH]c3c2)cc(C)n1` [Example 21]: the pEC50 is 7.08 at TLR9 and 6.90 at TLR7.

Turning to `Cc1cc(-c2ccc3c(C)c(-c4cccc(C(=O)N5CCNCC5)c4)[nH]c3c2)cc(C)n1` [Example 22, (3-(6-(2,6-dimethylpyridin-4-yl)-3-methyl-1H-indol-2-yl)phenyl)(piperazin-1-yl)methanone], the pEC50 at TLR9 was 7.21; on TLR7, 7.18.

In the case of `Cc1cc(-c2ccc3c(C)c(C4CCN(C(=O)CN(C)C)CC4)[nH]c3c2)cc(C)n1` [Example 24, 2-(dimethylamino)-1-(4-(6-(2,6-dimethylpyridin-4-yl)-3-methyl-1H-indol-2-yl)piperidin-1-yl)ethan-1-one], the values for the negative-log EC50 (pEC50) on TLR9 and at TLR7 were 6.88 and under 6.00, respectively.

In the case of `Cc1cc(-c2ccc3c(C)c(C4CCN(C(=O)c5cccnc5)CC4)[nH]c3c2)cc(C)n1` [Example 25], the pEC50 was 5.55 on TLR9 and under 6.00 on TLR7.

Take `Cc1cc(-c2ccc3c(C)c(C4CCN(C(=O)CC5CCNCC5)CC4)[nH]c3c2)cc(C)n1` [Example 26]: the values for the pEC50 on TLR9 and at TLR7 were 5.88 and under 6.00, respectively.

For the compound `Cc1cc(-c2ccc3c(C)c(C4CCN(C(=O)c5cncn5C)CC4)[nH]c3c2)cc(C)n1` [Example 27], the pEC50 on TLR9 is 5.47; at TLR7 it was under 6.00.

For `Cc1cc(-c2cnc3c(C)c(-c4ccc(N5CCNCC5)cc4)[nH]c3c2)cc(C)n1` [Example 28, 6-(2,6-dimethylpyridin-4-yl)-3-methyl-2-(4-(piperazin-1-yl)phenyl)-1H-pyrrolo[3,2-b]pyridine], the values for the pEC50 on TLR9 and at TLR7 were 6.87 and 7.55, respectively.

With `Cc1cc(-c2cnc3c(C)c(-c4ccc(N5CCNCC5)nc4)[nH]c3c2)cc(C)n1` [Example 29], the pEC50 on TLR9 is 7.11; on TLR7 it was 7.83.
